Assay results taken from article PMC9691367, “The PROTAC selectively degrading Bcl-xL represents a novel Hedgehog pathway inhibitor with capacity of combating resistance to Smoothened inhibitors while sparing bone growth” (Theranostics, 2022).

Key:
Bcl-xL = Bcl-xL (Homo sapiens, UniProt Q07817); experiment: Co-immunoprecipitation of Bcl-xL ubiquitination in 293T cells; type: cell-based; details: 293T cells with GST-Bcl-xL and HA-Ub, 1 µM, 4 h
Protocol: Cells were lysed in immunoprecipitation lysis buffer (#87787, Thermo Fisher Scientific) supplemented with protease and phosphatase inhibitor cocktail. Cell lysates were incubated with the indicated antibodies at 4 °C overnight, followed by incubation with Protein A/G Plus-Agarose beads (Santa Cruz Biotechnology) at 4 °C for 4 h. Immunoprecipitates were collected by centrifugation and washed three times with washing buffer. The complex was separated from the beads and then boiled for 10 min. The immunoprecipitates and inputs were analyzed by SDS-PAGE and immunoblot using the antibodies as indicated. […]
hydrochloride; DMAP = 4-dimethylaminopyridine; TFA = trifluoroacetic acid; DMF = N,N-dimethylformamide. (D) A representative western blot analysis of SALL4 in NIH-3T3 cells after being treated with SIAIS361034 as indicated for 24 h. (E) A representative western blot analysis of hemagglutinin (HA), Bcl-xL, and GAPDH following GST-Bcl-xL immunoprecipitation of protein extracts from 293T cells. Cells were cotransfected as indicated with GST-Bcl-xL and HA-tagged ubiquitin (HA-Ub) and then were treated with or without SIAIS361034 (1 µM) and MG132 (10 µM) as […]

[1] = tested on: IKZF1, IKZF3, SALL4, GSPT1; experiment: Western blot of CRBN neo-substrates in NIH-3T3 cells; type: cell-based; details: 24 h
Protocol: Cells were lysed in cell lysis buffer (50 mM Tris pH 8.0, 150 mM NaCl, 10% glycerol, 1 mM EDTA, 50 mM NaF, and 0.1% NP-40) supplemented with protease and phosphatase inhibitors. Total protein extracts of tissues were generated in radioimmunoprecipitation (RIPA) assay lysis buffer containing complete protease and phosphatase inhibitor cocktail. Protein content was quantified using the Pierce BCA Protein Assay Kit (#23225, Thermo Fisher Scientific). The proteins were separated by SDS-PAGE, electrophoretically transferred to polyvinylidene difluoride (PVDF) blotting membranes (#LC2002, Thermo Fisher Scientific), and subjected to routine immunoblot analysis with primary antibodies as follows: anti-Bcl-2 (#15071), anti-Mcl-1 (#94296), anti-VHL (#68547), anti-CRBN (#71810), and anti-Sufu (#2522) were obtained from Cell Signaling Technology (Danvers, Massachusetts, USA); anti-Bcl-xL (#ab32370), anti-Gli1 (#ab134906), and anti-Smoothened (#ab236465) were obtained from Abcam (Cambridge, CB2 0AX, UK); anti-GAPDH (#60004-1-Ig) and anti-β-tubulin (#10094-1-AP) were purchased from Proteintech Group, Inc. (Rosemont, IL 60018, USA). The results were quantified by densitometry using ImageJ software (NIH). […]
hydrochloride; DMAP = 4-dimethylaminopyridine; TFA = trifluoroacetic acid; DMF = N,N-dimethylformamide. […]

Sequence of Bcl-xL (Q07817 whole entry, species assumed): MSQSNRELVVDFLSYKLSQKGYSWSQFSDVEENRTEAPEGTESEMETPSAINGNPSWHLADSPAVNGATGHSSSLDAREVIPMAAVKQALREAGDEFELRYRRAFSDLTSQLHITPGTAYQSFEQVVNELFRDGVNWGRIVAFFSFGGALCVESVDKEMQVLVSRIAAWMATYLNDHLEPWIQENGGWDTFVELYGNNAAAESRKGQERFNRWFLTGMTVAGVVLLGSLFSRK

For `CC1(C)CCC(c2ccc(Cl)cc2)=C(CN2CCN(c3ccc(C(=O)NS(=O)(=O)c4ccc(NCCCN5CCN(CCCC#Cc6cccc7c6CN(C6CCC(=O)NC6=O)C7=O)CC5)c(S(=O)(=O)C(F)(F)F)c4)cc3)CC2)C1` (centres unmarked) [SIAIS361034], the Bcl-xL ubiquitination (Bcl-xL) was “induce Bcl-xL ubiquitination” and the “abundance of CRBN neo-substrates IKZF1, IKZF3, SALL4, GSPT1” value [1] was “did not affect abundance”.
